In brackets after ≈: the same amount, converted by molar mass.
Legend:
Assay type in all cases: functional
Enterococcus faecalis [1] = test: Antimicrobial activity against Enterococcus faecalis clinical isolates by broth microdilution method
Enterococcus faecium [2] = test: Antimicrobial activity against Enterococcus faecium expressing VanB gene clinical isolates assessed as resistant isolates by broth microdilution method
Enterococcus faecium [3] = test: Antimicrobial activity against vancomycin-nonsusceptible Enterococcus faecium clinical isolates assessed as resistant isolates by broth microdilution method
Enterococcus faecium [4] = test: Antimicrobial activity against Enterococcus faecium expressing VanB gene clinical isolates by broth microdilution method
Enterococcus faecalis [5] = test: Antimicrobial activity against Enterococcus faecalis expressing VanA gene clinical isolates assessed as resistant isolates by broth microdilution method
Enterococcus faecium [6] = test: Antimicrobial activity against vancomycin-susceptible Enterococcus faecium clinical isolates assessed as resistant isolates by broth microdilution method
Enterococcus faecium [7] = test: Antimicrobial activity against vancomycin-nonsusceptible Enterococcus faecium clinical isolates assessed as percent susceptible isolates by broth microdilution method
Enterococcus faecalis [8] = test: Antimicrobial activity against vancomycin-susceptible Enterococcus faecalis clinical isolates assessed as percent susceptible isolates by broth microdilution method
Enterococcus faecium [9] = test: Antimicrobial activity against Enterococcus faecium expressing VanB gene clinical isolates assessed as percent susceptible isolates by broth microdilution method
Enterococcus faecium [10] = test: Antimicrobial activity against Enterococcus faecium clinical isolates assessed as resistant isolates by broth microdilution method
Enterococcus faecalis [11] = test: Antimicrobial activity against Enterococcus faecalis clinical isolates assessed as resistant isolates by broth microdilution method
Enterococcus faecalis [12] = test: Antimicrobial activity against vancomycin-nonsusceptible Enterococcus faecalis clinical isolates by broth microdilution method
Enterococcus faecalis [13] = test: Antimicrobial activity against Enterococcus faecalis expressing VanA gene clinical isolates by broth microdilution method
Enterococcus faecalis [14] = test: Antimicrobial activity against Enterococcus faecalis expressing VanB gene clinical isolates assessed as percent susceptible isolates by broth microdilution method
Enterococcus faecium [15] = test: Antimicrobial activity against Enterococcus faecium expressing VanA gene clinical isolates assessed as resistant isolates by broth microdilution method
Enterococcus faecium [16] = test: Antimicrobial activity against vancomycin-nonsusceptible Enterococcus faecium clinical isolates by broth microdilution method
Enterococcus faecium [17] = test: Antimicrobial activity against vancomycin-susceptible Enterococcus faecium clinical isolates by broth microdilution method
Enterococcus faecalis [18] = test: Antimicrobial activity against vancomycin-nonsusceptible Enterococcus faecalis clinical isolates assessed as resistant isolates by broth microdilution method
Enterococcus faecalis [19] = test: Antimicrobial activity against Enterococcus faecalis expressing VanB gene clinical isolates by broth microdilution method
Enterococcus faecium [20] = test: Antimicrobial activity against Enterococcus faecium expressing VanA gene clinical isolates assessed as percent susceptible isolates by broth microdilution method
Enterococcus faecalis [21] = test: Antimicrobial activity against Enterococcus faecalis expressing VanA gene clinical isolates assessed as percent susceptible isolates by broth microdilution method
Enterococcus faecalis [22] = test: Antimicrobial activity against vancomycin-susceptible Enterococcus faecalis clinical isolates by broth microdilution method
Enterococcus faecalis [23] = test: Antimicrobial activity against vancomycin-nonsusceptible Enterococcus faecalis clinical isolates assessed as percent susceptible isolates by broth microdilution method
Enterococcus faecalis [24] = test: Antimicrobial activity against vancomycin-susceptible Enterococcus faecalis clinical isolates assessed as resistant isolates by broth microdilution method
Enterococcus faecium [25] = test: Antimicrobial activity against Enterococcus faecium clinical isolates assessed as percent susceptible isolates by broth microdilution method
Enterococcus faecium [26] = test: Antimicrobial activity against Enterococcus faecium expressing VanA gene clinical isolates by broth microdilution method
Enterococcus faecium [27] = test: Antimicrobial activity against Enterococcus faecium clinical isolates by broth microdilution method
Enterococcus faecalis [28] = test: Antimicrobial activity against Enterococcus faecalis expressing VanB gene clinical isolates assessed as resistant isolates by broth microdilution method
Enterococcus faecium [29] = test: Antimicrobial activity against vancomycin-susceptible Enterococcus faecium clinical isolates assessed as percent susceptible isolates by broth microdilution method
Enterococcus faecalis [30] = test: Antimicrobial activity against Enterococcus faecalis clinical isolates assessed as percent susceptible isolates by broth microdilution method
Staphylococcus aureus [31] = test: Antimicrobial activity against Staphylococcus aureus clinical isolates by broth microdilution method
Staphylococcus aureus [32] = test: Antimicrobial activity against oxacillin-susceptible Staphylococcus aureus clinical isolates by broth microdilution method
[33] = test system: Staphylococcus epidermidis; test: Antimicrobial activity against oxacillin-susceptible Staphylococcus epidermidis clinical isolates by broth microdilution method
[34] = test system: Staphylococcus epidermidis; test: Antimicrobial activity against Staphylococcus epidermidis clinical isolates assessed as percent susceptible isolates by broth microdilution method
[35] = test system: Staphylococcus haemolyticus; test: Antimicrobial activity against oxacillin-susceptible Staphylococcus haemolyticus clinical isolates by broth microdilution method
[36] = test system: Staphylococcus haemolyticus; test: Antimicrobial activity against oxacillin-resistant Staphylococcus haemolyticus clinical isolates by broth microdilution method
Staphylococcus aureus [37] = test: Antimicrobial activity against Staphylococcus aureus clinical isolates assessed as percent susceptible isolates by broth microdilution method
[38] = test system: Staphylococcus epidermidis; test: Antimicrobial activity against oxacillin-susceptible Staphylococcus epidermidis clinical isolates assessed as percent susceptible isolates by broth microdilution method
[39] = test system: Staphylococcus haemolyticus; test: Antimicrobial activity against oxacillin-resistant Staphylococcus haemolyticus clinical isolates assessed as percent susceptible isolates by broth microdilution method
[40] = test system: Staphylococcus haemolyticus; test: Antimicrobial activity against Staphylococcus haemolyticus clinical isolates by broth microdilution method
[41] = test system: Staphylococcus epidermidis; test: Antimicrobial activity against Staphylococcus epidermidis clinical isolates by broth microdilution method
[42] = test system: Staphylococcus epidermidis; test: Antimicrobial activity against oxacillin-resistant Staphylococcus epidermidis clinical isolates by broth microdilution method
Staphylococcus aureus [43] = test: Antimicrobial activity against oxacillin-resistant Staphylococcus aureus clinical isolates by broth microdilution method
Staphylococcus aureus [44] = test: Antimicrobial activity against oxacillin-susceptible Staphylococcus aureus clinical isolates assessed as percent susceptible isolates by broth microdilution method
[45] = test system: Staphylococcus haemolyticus; test: Antimicrobial activity against oxacillin-susceptible Staphylococcus haemolyticus clinical isolates assessed as percent susceptible isolates by broth microdilution method
[46] = test system: Staphylococcus haemolyticus; test: Antimicrobial activity against Staphylococcus haemolyticus clinical isolates assessed as percent susceptible isolates by broth microdilution method

Compound: CN[C@@H]1[C@H](O[C@H]2[C@H](O[C@H]3[C@H](O)[C@@H](O)[C@H](N=C(N)N)[C@@H](O)[C@@H]3N=C(N)N)O[C@@H](C)[C@]2(O)C=O)O[C@@H](CO)[C@H](O)[C@H]1O [STREPTOMYCIN]
- MIC (Enterococcus faecalis [1]): ≥ 1000 µg/mL
- MIC90 (Enterococcus faecalis [1]): > 1000 µg/mL
- Activity (Enterococcus faecium [2]): 65.5%
- Activity (Enterococcus faecium [3]): 63.5%
- MIC (Enterococcus faecium [4]): ≥ 1000 µg/mL
- MIC90 (Enterococcus faecium [4]): > 1000 µg/mL
- Activity (Enterococcus faecalis [5]): 50.8%
- Activity (Enterococcus faecium [6]): 44%
- Activity (Enterococcus faecium [7]): 36.5%
- Activity (Enterococcus faecalis [8]): 71.3%
- Activity (Enterococcus faecium [9]): 34.5%
- Activity (Enterococcus faecium [10]): 55.2%
- Activity (Enterococcus faecalis [11]): 29.9%
- MIC (Enterococcus faecalis [12]): ≥ 1000 µg/mL
- MIC90 (Enterococcus faecalis [12]): > 1000 µg/mL
- MIC (Enterococcus faecalis [13]): ≥ 1000 µg/mL
- MIC90 (Enterococcus faecalis [13]): > 1000 µg/mL
- Activity (Enterococcus faecalis [14]): 41.2%
- Activity (Enterococcus faecium [15]): 63.9%
- MIC (Enterococcus faecium [16]): ≥ 1000 µg/mL
- MIC90 (Enterococcus faecium [16]): > 1000 µg/mL
- MIC (Enterococcus faecium [17]): ≥ 1000 µg/mL
- MIC90 (Enterococcus faecium [17]): > 1000 µg/mL
- Activity (Enterococcus faecalis [18]): 51.7%
- MIC (Enterococcus faecalis [19]): ≥ 1000 µg/mL
- MIC90 (Enterococcus faecalis [19]): > 1000 µg/mL
- Activity (Enterococcus faecium [20]): 36.1%
- Activity (Enterococcus faecalis [21]): 49.2%
- MIC (Enterococcus faecalis [22]): ≥ 1000 µg/mL
- MIC90 (Enterococcus faecalis [22]): > 1000 µg/mL
- Activity (Enterococcus faecalis [23]): 48.3%
- Activity (Enterococcus faecalis [24]): 28.7%
- Activity (Enterococcus faecium [25]): 44.8%
- MIC (Enterococcus faecium [26]): ≥ 1000 µg/mL
- MIC90 (Enterococcus faecium [26]): > 1000 µg/mL
- MIC (Enterococcus faecium [27]): ≥ 1000 µg/mL
- MIC90 (Enterococcus faecium [27]): > 1000 µg/mL
- Activity (Enterococcus faecalis [28]): 58.8%
- Activity (Enterococcus faecium [29]): 56%
- Activity (Enterococcus faecalis [30]): 70.1%

Compound: GENTAMICIN
- MIC (Enterococcus faecalis [1]): > 500 µg/mL
- MIC90 (Enterococcus faecalis [1]): > 500 µg/mL
- Activity (Enterococcus faecium [2]): 24.1%
- Activity (Enterococcus faecium [3]): 36.7%
- MIC (Enterococcus faecium [4]): > 500 µg/mL
- MIC90 (Enterococcus faecium [4]): > 500 µg/mL
- Activity (Enterococcus faecalis [5]): 83.1%
- Activity (Enterococcus faecium [6]): 25.1%
- Activity (Enterococcus faecium [7]): 63.3%
- Activity (Enterococcus faecalis [8]): 67.8%
- Activity (Enterococcus faecium [9]): 75.9%
- Activity (Enterococcus faecium [10]): 31.7%
- Activity (Enterococcus faecalis [11]): 34.6%
- MIC (Enterococcus faecalis [12]): > 500 µg/mL
- MIC90 (Enterococcus faecalis [12]): > 500 µg/mL
- MIC (Enterococcus faecalis [13]): > 500 µg/mL
- MIC90 (Enterococcus faecalis [13]): > 500 µg/mL
- Activity (Enterococcus faecalis [14]): 29.4%
- Activity (Enterococcus faecium [15]): 37.1%
- MIC (Enterococcus faecium [16]): > 500 µg/mL
- MIC90 (Enterococcus faecium [16]): > 500 µg/mL
- MIC (Enterococcus faecium [17]): > 500 µg/mL
- MIC90 (Enterococcus faecium [17]): > 500 µg/mL
- Activity (Enterococcus faecalis [18]): 80.5%
- MIC (Enterococcus faecalis [19]): > 500 µg/mL
- MIC90 (Enterococcus faecalis [19]): > 500 µg/mL
- Activity (Enterococcus faecium [20]): 62.9%
- Activity (Enterococcus faecalis [21]): 16.9%
- MIC (Enterococcus faecalis [22]): > 500 µg/mL
- MIC90 (Enterococcus faecalis [22]): > 500 µg/mL
- Activity (Enterococcus faecalis [23]): 19.5%
- Activity (Enterococcus faecalis [24]): 32.2%
- Activity (Enterococcus faecium [25]): 68.3%
- MIC (Enterococcus faecium [26]): > 500 µg/mL
- MIC90 (Enterococcus faecium [26]): > 500 µg/mL
- MIC (Enterococcus faecium [27]): > 500 µg/mL
- MIC90 (Enterococcus faecium [27]): > 500 µg/mL
- Activity (Enterococcus faecalis [28]): 70.6%
- Activity (Enterococcus faecium [29]): 74.9%
- Activity (Enterococcus faecalis [30]): 65.4%

Compound: CC(=O)NC[C@H]1CN(c2ccc(N3CCOCC3)c(F)c2)C(=O)O1 [LINEZOLID]
- MIC90 (Enterococcus faecalis [1]): 2 µg/mL (≈ 5.93 µM)
- Activity (Enterococcus faecium [2]): 3.4%
- Activity (Enterococcus faecium [3]): 0.6%
- MIC90 (Staphylococcus aureus [31]): 2 µg/mL (≈ 5.93 µM)
- MIC90 (Enterococcus faecium [4]): 2 µg/mL (≈ 5.93 µM)
- Activity (Enterococcus faecalis [5]): 1.5%
- Activity (Enterococcus faecium [6]): 0%
- MIC90 (Staphylococcus aureus [32]): 2 µg/mL (≈ 5.93 µM)
- Activity (Enterococcus faecium [7]): 99.1%
- MIC90 [33]: 1 µg/mL (≈ 2.96 µM)
- Activity [34]: 99.4%
- Activity (Enterococcus faecalis [8]): 99.9%
- Activity (Enterococcus faecium [9]): 93.1%
- Activity (Enterococcus faecium [10]): 0.4%
- MIC90 [35]: 1 µg/mL (≈ 2.96 µM)
- Activity (Enterococcus faecalis [11]): 0.2%
- MIC90 (Enterococcus faecalis [12]): 2 µg/mL (≈ 5.93 µM)
- MIC90 [36]: 1 µg/mL (≈ 2.96 µM)
- MIC90 (Enterococcus faecalis [13]): 2 µg/mL (≈ 5.93 µM)
- Activity (Enterococcus faecalis [14]): 100%
- Activity (Enterococcus faecium [15]): 0.5%
- MIC90 (Enterococcus faecium [16]): 2 µg/mL (≈ 5.93 µM)
- MIC90 (Enterococcus faecium [17]): 2 µg/mL (≈ 5.93 µM)
- Activity (Staphylococcus aureus [37]): 100%
- Activity (Enterococcus faecalis [18]): 1.1%
- MIC90 (Enterococcus faecalis [19]): 2 µg/mL (≈ 5.93 µM)
- Activity [38]: 99.7%
- Activity [39]: 99%
- MIC90 [40]: 1 µg/mL (≈ 2.96 µM)
- Activity (Enterococcus faecium [20]): 99.5%
- MIC90 [41]: 1 µg/mL (≈ 2.96 µM)
- Activity (Enterococcus faecalis [21]): 98.5%
- MIC90 [42]: 1 µg/mL (≈ 2.96 µM)
- MIC90 (Enterococcus faecalis [22]): 2 µg/mL (≈ 5.93 µM)
- Activity (Enterococcus faecalis [23]): 98.9%
- Activity (Enterococcus faecalis [24]): 0.1%
- Activity (Enterococcus faecium [25]): 99.3%
- MIC90 (Staphylococcus aureus [43]): 2 µg/mL (≈ 5.93 µM)
- MIC90 (Enterococcus faecium [26]): 2 µg/mL (≈ 5.93 µM)
- Activity (Staphylococcus aureus [44]): 100%
- MIC90 (Enterococcus faecium [27]): 2 µg/mL (≈ 5.93 µM)
- Activity [45]: 100%
- Activity [46]: 99.3%
- Activity (Enterococcus faecalis [28]): 0%
- Activity (Enterococcus faecium [29]): 99.4%
- Activity (Enterococcus faecalis [30]): 99.8%

— ChEMBL document CHEMBL1649268, “Comparative in vitro activity profile of oritavancin against recent gram-positive clinical isolates” (2009)
